# Assay results: US20240300936A1 (priority 2021, published 2024)
# Structures can show the parent of a compound that is named as a salt. Where two headings read alike, the source gives them in different places.
# System: HELA cells
# Experiment: HELA cell proliferation assay (CellTitre-Glo, 6 days)
# Type: cell-based
# Conditions: Homo sapiens, 144 h
# [1] = HeLa, read-out: HeLa pIC50 (M) (converted)
# [2] = HELA cells, 6 days treatment, CellTitre-Glo, read-out: HeLa pIC50 (converted)
SMILES,IC50 [1],IC50 [2]
"Nc1nc(-c2ccc3cn[nH]c3c2)nc(N2CCOCC2Cc2cccc(Cl)c2Cl)n1 (stereo not drawn) [Example 3, 4-[3-[(2,3-dichlorophenyl)methyl]morpholin-4-yl]-6-(1H-indazol-6-yl)-1,3,5-triaz in-2-amine hydrochloride]",2.95e-06 M,
"Nc1nc(NC2(c3cccc(F)c3F)CC2)nc(-c2ccc3cn[nH]c3c2)n1 [Example 23, N2-[1-(2,3-Difluorophenyl)cyclopropyl]-6-(1H-indazol-6-yl)-1,3,5-triazine-2,4-diamine]",,2.24e-07 M
"Cn1ncc2ccc(-c3nc(N)nc(NC4(c5ccn(C(F)F)n5)CCC4)n3)cc21 [Example 82, N4-[1-[1-(Difluoromethyl)pyrazol-3-yl]cyclobutyl]-6-(1-methylindazol-6-yl)-1,3,5-triazine-2,4-diamine]",,2.4e-06 M
"Nc1nc(NC2COc3cc(F)ccc32)nc(-c2ccc3cn[nH]c3c2)n1 (stereo not drawn) [Example 89, N2-(6-fluoro-2,3-dihydrobenzofuran-3-yl)-6-(1H-indazol-6-yl)-1,3,5-triazine-2,4-diamine]",,8.51e-07 M
"Nc1nc(NC2COc3cccc(F)c32)nc(-c2ccc3cn[nH]c3c2)n1 (stereo not drawn) [Example 5, N2-(4-fluoro-2,3-dihydrobenzofuran-3-yl)-6-(1H-indazol-6-yl)-1,3,5-triazine-2,4-diamine]",,3.39e-06 M
"Nc1nc(NCc2ccn(C(F)F)n2)nc(-c2ccc3cncn3c2)n1 [Example 74, N2-[[1-(difluoromethyl)pyrazol-3-yl]methyl]-6-imidazo[1,5-a]pyridin-6-yl-1,3,5-tria zine-2,4-diaminediamine]",,4.9e-07 M
"Nc1nc(NC2(c3ccn(C(F)F)n3)CC2)nc(-c2ccc3cn[nH]c3c2)n1 [Example 22, N2-[1-[1-(Difluoromethyl)pyrazol-3-yl]cyclopropyl]-6-(1H-indazol-6-yl)-1,3,5-triazine-2,4-diamine]",,1.35e-07 M
"Cn1ncc2ccc(-c3nc(N)nc(NC(C)(C)c4ccn(C(F)F)n4)n3)cc21 [Example 101, N2-[1-[1-(difluoromethyl)pyrazol-3-yl]-1-methyl-ethyl]-6-(1-methylindazol-6-yl)-1,3,5-triazine-2,4-diamine]",,2.57e-07 M
"Nc1nc(NCc2cccc(F)c2F)nc(-c2ccc3cncn3c2)n1 [Example 30, N4-[(2,3-Difluorophenyl)methyl]-6-imidazo[1,5-a]pyridin-6-yl-1,3,5-triazine-2,4-dia mine]",,1.55e-07 M
"CC(C)(Nc1nc(N)nc(-c2ccc3cncn3c2)n1)c1ccn(C(F)F)n1 [Example 36, N4-[1-[1-(difluoromethyl)pyrazol-3-yl]-1-methyl-ethyl]-6-imidazo[1,5-a]pyridin-6-yl-1,3,5-triazine-2,4-diamine]",,4.47e-08 M
"CC(C)(Nc1nc(N)nc(-c2ccc3cn[nH]c3c2)n1)c1ccn(C(F)F)n1 [Example 60, N2-[1-[1-(difluoromethyl)pyrazol-3-yl]-1-methyl-ethyl]-6-(1H-indazol-6-yl)-1,3,5-tri azine-2,4-diamine]",,3.47e-08 M
"CC(C)(Nc1nc(N)nc(-c2cc(F)c3cn[nH]c3c2)n1)c1ccn(C(F)F)n1 [Example 104, N2-[1-[1-(difluoromethyl)pyrazol-3-yl]-1-methyl-ethyl]-6-(4-fluoro-1H-indazol-6-yl)-1,3,5-triazine-2,4-diamine]",,2.19e-07 M
"CC(C)(Nc1nc(N)nc(-c2ccc3cn[nH]c3c2)n1)c1ccn(CCN2CCCC2)n1 [Example 83, 6-(1H-Indazol-6-yl)-N2-[1-methyl-1-[1-(2-pyrrolidin-1-ylethyl)pyrazol-3-yl]ethyl]-1,3,5-triazine-2,4-diamine hydrochloride]",7.08e-07 M,
"Nc1nc(NCc2cccc(F)c2Cl)nc(-c2ccc3cncn3c2)n1 [Example 73, N2-[(2-chloro-3-fluoro-phenyl)methyl]-6-imidazo[1,5-a]pyridin-6-yl-1,3,5-triazine-2,4-diamine]",,4.27e-07 M
"CN(c1nc(N)nc(-c2ccc3cncn3c2)n1)C(C)(C)c1ccn(C(F)F)n1 [Example 34, N4-[1-[1-(difluoromethyl)pyrazol-3-yl]-1-methyl-ethyl]-6-imidazo[1,5-a]pyridin-6-yl-N4-methyl-1,3,5-triazine-2,4-diamine]",,7.76e-07 M
"Nc1nc(NC2(c3ccccn3)CC2)nc(-c2ccc3cn[nH]c3c2)n1 [Example 6, 6-(1H-indazol-6-yl)-N2-[1-(2-pyridyl)cyclopropyl]-1,3,5-triazine-2,4-diamine]",,5.89e-07 M
"COc1cccc(CNc2nc(N)nc(-c3ccc4cn[nH]c4c3)n2)c1F [Example 85, N2-[(2-Fluoro-3-methoxy-phenyl)methyl]-6-(1H-indazol-6-yl)-1,3,5-triazine-2,4-diamine]",,1.58e-06 M
"CN(CCc1cccc(Cl)c1Cl)c1nc(N)nc(-c2ccc3cn[nH]c3c2)n1 [Example 43, N4-[2-(2,3-dichlorophenyl)ethyl]-6-(1H-indazol-6-yl)-N4-methyl-1,3,5-triazine-2,4-diamine]",,2.09e-06 M
"Nc1nc(NCc2cccc(F)c2F)nc(-c2ccc3cn[nH]c3c2)n1 [Example 70, N2-[(2,3-difluorophenyl)methyl]-6-(1H-indazol-6-yl)-1,3,5-triazine-2,4-diamine]",,1.15e-07 M
"CC(C)(Nc1nc(N)nc(-c2ccc3cn[nH]c3c2)n1)c1ccccn1 [Example 12, 6-(1H-indazol-6-yl)-N2-[1-methyl-1-(2-pyridyl)ethyl]-1,3,5-triazine-2,4-diamine hydrochloride]",1.74e-07 M,
"CC(C)(Nc1nc(N)nc(-c2ccc3cn[nH]c3c2F)n1)c1ccn(C(F)F)n1 [Example 102, N2-[1-[1-(difluoromethyl)pyrazol-3-yl]-1-methyl-ethyl]-6-(7-fluoro-1H-indazol-6-yl)-1,3,5-triazine-2,4-diamine]",,2.95e-07 M
"Cn1ncc2ccc(-c3nc(N)nc(NC4(c5ccn(C(F)F)n5)CC4)n3)cc21 [Example 32, N4-[1-[1-(Difluoromethyl)pyrazol-3-yl]cyclopropyl]-6-(1-methylindazol-6-yl)-1,3,5-triazine-2,4-diamine]",,1.29e-06 M
"CC(C)(Nc1nc(N)nc(-c2ccc3cn[nH]c3c2)n1)c1cccc(F)c1F [Example 28, N2-[1-(2,3-difluorophenyl)-1-methyl-ethyl]-6-(1H-indazol-6-yl)-1,3,5-triazine-2,4-di amine]",,1.91e-07 M
"Nc1nc(NC2(c3cccc(C(F)(F)F)n3)CC2)nc(-c2ccc3cn[nH]c3c2)n1 [Example 1, 6-(1H-indazol-6-yl)-N2-[1-[6-(trifluoromethyl)-2-pyridyl]cyclopropyl]-1,3,5-triazine-2,4-diamine hydrochloride]",1.07e-06 M,
